{"source": "patent US20120183635A1", "about": "“ROSEMARY EXTRACTS, DIETARY AND PHARMACEUTICAL COMPOSITIONS CONTAINING THEM AND THEIR USES” (DSM IP ASSETS B.V., priority 2006, published 2012)", "test_system": "duration of immobility", "experiment": "Porsolt's Forced Swim Test (FST) in the mouse", "assay_type": "in vivo", "details": "32 mg/kg p.o., −24, −5, −1 h", "experimental": "Mice were individually placed in a cylinder (Height=24.5 cm, Diameter=19.5 cm) containing 13.5 cm water (22° C.) from which they could not escape. The mice were placed in the water for 6 min and the duration of immobility during the last 4 min was measured. Ten mice were studied per group. Rosemary extract (dissolved in corn oil) was evaluated at 272, 409 and 545 mg/kg body weight, administered orally 24, 5, and 1 h before the test, and compared with a vehicle-treated control group. Imipramine (32 mg/kg, p.o.; dissolved in distilled water), administered under the same experimental conditions, was used as reference substance. Data were analysed by comparing all groups using one-way Analysis of Variance (ANOVA) and the Bonferroni post-hoc test."}
{"smiles": "CN(C)CCCN1c2ccccc2CCc2ccccc21", "note": "[Imipramine, imipramine]", "values": [{"measurement": "DURATION OF IMMOBILITY % change from control", "result": "−59", "unit": "%"}, {"measurement": "DURATION OF IMMOBILITY (as % total test time) mean ± S.D.", "result": "17.75 ± 9.92", "unit": "% total test time"}]}
